Results reported in patent US8501950B2, “N-cyanoalkylanthranilamides as insecticides” (Syngenta Crop Protection LLC, priority 2006, dated 2013).
Read-outs that look alike come from different tables or passages of the source.

What was measured:
[1] = system: Thrips tabaci (Onion Thrips); test: Example B7: activity against Thrips tabaci, sunflower leaf discs; assay type: in vivo; conditions: foliar, 144 h
Experimental: Activity Against Thrips tabaci (Onion Thrips)
Sunflower leaf discs are placed on agar in a 24-well microtiter plate and sprayed with test solutions. After drying, the leaf discs are infested with a thrips population of mixed ages. After an incubation period of 6 days, samples are checked for mortality and special effects (e.g. phytotoxicity).

[2] = system: Spodoptera littoralis (Egyptian Cotton Leafworm); test: Example B1: activity against Spodoptera littoralis, sprayed cotton leaf discs, L1 larvae; assay type: in vivo; conditions: foliar, 72 h
From the text: Activity Against Spodoptera littoralis (Egyptian Cotton Leafworm)
Cotton leaf discs are placed on agar in a 24-well microtiter plate and sprayed with test solutions. After drying, the leaf discs are infested with 5 L1 larvae. The samples are checked for mortality, repellent effect, feeding behaviour, and growth inhibition 3 days after treatment (DAT).

[3] = system: Cydia pomonella (Codling Moth); test: Example B10: activity against Cydia pomonella, sprayed diet cubes; assay type: in vivo; conditions: 336 h
Experimental: Activity Against Cydia pomonella (Codling Moth)
Standard Cydia diet cubes (1.5 cm width) are pierced with a tooth-pick and are immersed in liquid paraffin (ca. 80° C.). After the paraffin coat has hardened, an aqueous emulsion containing 12.5 ppm of active ingredient is applied using a De Vilbis sprayer (25 ml, 1 bar). After the spray coating has dried, the cubes are put into plastic containers which are then populated with two freshly hatched Cydia pomonella (1st instar). The containers are then closed with a plastic cap. After 14 days incubation at 26° C. and 40-60% relative humidity, the survival rate of the caterpillars as well as their growth regulation is determined.

[4] = system: Spodoptera littoralis (Cotton Leafworm); test: Example B9: systemic insecticide test for Spodoptera littoralis, maize seedlings at 12.5 ppm; assay type: in vivo
Experimental: (§1) Systemic Insecticide Test for Spodoptera littoralis (Cotton Leafworm)
[…] Seedlings are allowed to grow for six days. Subsequently leaves are cut and placed in a Petri dish (5 cm diameter), inoculated with twelve to fifteen 1st instar S. littoralis larvae and incubated for four days in a growth chamber (25° C., 50% r.h., 18:6 L:D photo period). Number of alive insects are counted and percentage of dead calculated. Tests were conducted with one replicate.

[5] = system: Heliothis virescens (Tobacco Budworm); test: Example B2: activity against Heliothis virescens, eggs on artificial diet; assay type: in vivo; conditions: 96 h
Experimental: Activity Against Heliothis virescens (Tobacco Budworm)
Eggs (0-24 h old) are placed in 24-well microtiter plate on artificial diet and sprayed with test solutions. After an incubation period of 4 days, samples are checked for egg mortality, larval mortality, and growth inhibition.

[6] = system: Plutella xvlostella (Diamond Back Moth); test: Example B3: activity against Plutella xylostella, L2 larvae on artificial diet; assay type: in vivo; conditions: 120 h
Experimental: Activity Against Plutella xvlostella (Diamond Back Moth)
24-well microtiter plate (MTP) with artificial diet is sprayed with test solutions. After drying, the MTP's are infested with larvae (L2)(10-15 per well). After an incubation period of 5 days, samples are checked for larval mortality, antifeedant and growth inhibition.

[7] = system: Spodoptera littoralis (Cotton Leafworm); test: Example B11: systemic insecticide test for Spodoptera littoralis, comparison with prior art; assay type: in vivo; conditions: for mortality at 0.0125 ppm / mortality at 0.05 ppm: Spodoptera littoralis, 120 h, read-out: Mortality (%) after 5 days
From the text: as §1
[…] Seedlings are allowed to grow for six days. […] Number of alive insects are counted and percentage of dead calculated.

[8] = system: Frankliniella occidentalis (Western Flower Thrips); test: Example B12: activity against Frankliniella occidentalis, sprayed bean plants, comparison with prior art; assay type: in vivo; conditions: for inhibition at 12.5 ppm / inhibition at 25 ppm / inhibition at 50 ppm: Frankliniella occidentalis, 288 h, reduction of treated population vs non treated, read-out: Activity (%) after 12 days
Experimental: Activity Against Frankliniella occidentalis (Western Flower Thrips)
Bean plants are treated in a spray chamber with diluted test solutions. After drying they are infested with mixed population. 12 days after the infestation, samples are checked for reduction of treated population and compared to the non treated population.

[9] = system: Diabrotica balteata (Corn Root Worm); test: Example B4: activity against Diabrotica balteata, L2 larvae on artificial diet; assay type: in vivo; conditions: 120 h, 5 days incubation, read-out: activity (sentence prints only 'over 80%')
Experimental: Activity Against Diabrotica balteata (Corn Root Worm)
24-well microtiter plate (MTP) with artificial diet is sprayed with test solutions. After drying, the MTP's are infested with larvae (L2)(6-10 per well). After an incubation period of 5 days, samples are checked for larval mortality, antifeedant and growth inhibition.

[10] = system: Mvzus persicae (Green Peach Aphid); test: Example B5: activity against Myzus persicae (contact), sunflower leaf discs; assay type: in vivo; conditions: foliar, 144 h
Experimental: Activity Against Mvzus persicae (Green Peach Aphid): (Contact)
Sunflower leaf discs are placed on agar in a 24-well microtiter plate and sprayed with test solutions. After drying, the leaf discs are infested with an aphid population of mixed ages. After an incubation period of 6 DAT, samples are checked for mortality and special effects (e.g. phytotoxicity).

[11] = system: Myzus persicae (Green Peach Aphid); test: Example B6: activity against Myzus persicae (systemic), pea seedling roots in test solution; assay type: in vivo; conditions: 144 h
From the text: Activity Against Myzus persicae (Green Peach Aphid): (Systemic)
Roots of pea seedlings, infested with an aphid population of mixed ages, are placed directly in the test solutions. 6 days after introduction, samples are checked for mortality and special effects on the plant.

[12] = system: Tetranychus urticae (Two-Spotted Spider Mite); test: Example B8: activity against Tetranychus urticae, bean leaf discs; assay type: in vivo
From the text: Activity Against Tetranychus urticae (Two-Spotted Spider Mite)
Bean leaf discs on agar in 24-well microtiter plates are sprayed with test solutions. After drying, the leaf discs are infested with mite populations of mixed ages. 8 days later, discs are checked for egg mortality, larval mortality, and adult mortality.

[13] = 200 ppm, 3 days after treatment, L1 larvae on cotton leaf discs, read-out: mortality
[14] = 12.5 ppm in water, systemic via maize seedlings, one replicate, read-out: mortality
[15] = 200 ppm, 4 days incubation, eggs on artificial diet, read-out: mortality
[16] = 200 ppm, 5 days incubation, L2 larvae, read-out: mortality

Compound: Cc1cc(Cl)cc(C(=O)NC(C)(C#N)C2CC2)c1NC(=O)c1cc(OC(F)F)nn1-c1ncccc1Cl (stereo not drawn)
- melting point: 197 to 198 °C

Compound: Cc1cc(I)cc(C(=O)NC(C)(C#N)C2CC2)c1NC(=O)c1cc(OC(F)F)nn1-c1ncccc1Cl (stereo not drawn)
- melting point: 203 to 204 °C

Compound: Cc1cc(Cl)cc(C(=O)NC(C)(C#N)C2CC2)c1NC(=O)c1cc(C(F)(F)F)nn1-c1ncccc1Cl (single isomer, unassigned) [Compound T1.1.49a]
- mortality at 200 ppm ([1]; 200 ppm, 6 days incubation, mixed ages, read-out: mortality): > 80%
- mortality at 200 ppm [2, 13]: > 80%
- mortality at 12.5 ppm ([3]; 12.5 ppm, 14 days incubation at 26° C., read-out: mortality): > 80%
- mortality at 12.5 ppm [4, 14]: > 80%
- mortality at 200 ppm [5, 15]: > 80%
- mortality at 200 ppm [6, 16]: > 80%

Compound: Cc1cc(Cl)cc(C(=O)NC(C#N)C2CC2)c1NC(=O)c1cc(C(F)(F)F)nn1-c1ncccc1Cl (stereo not drawn) [A.1.346, reference compound]
- mortality at 0.0125 ppm [7]: 0%
- mortality at 0.05 ppm [7]: 100%
- inhibition at 12.5 ppm [8]: 0%
- inhibition at 25 ppm [8]: 0%
- inhibition at 50 ppm [8]: 0%

Compound: Cc1cc(Cl)cc(C(=O)NC(C)(C#N)C2CC2)c1NC(=O)c1cc(C(F)(F)F)nn1-c1ncccc1Cl (stereo not drawn) [Compound T1.1.49, 2-(3-chloro-pyridin-2-yl)-5-trifluoromethyl-2H-pyrazole-3-carboxylic acid {4-chloro-2-[(cyano-cyclopropyl-methyl-methyl)-carbamoyl]-6-methyl-phenyl}-amide]
- mortality at 200 ppm [1]: > 80%
- mortality at 200 ppm [2]: > 80%
- mortality at 12.5 ppm [3]: > 80%
- mortality at 0.0125 ppm [7]: 93%
- mortality at 0.05 ppm [7]: 100%
- insecticidal action compared with the compound from the state of the art (A.1.346) ([7]; Table B11): substantially better insecticidal action
- mortality at 12.5 ppm [4]: > 80%
- mortality at 200 ppm [5]: > 80%
- pest or weed control at 200 ppm [9]: > 80%
- inhibition at 12.5 ppm [8]: 75%
- inhibition at 25 ppm [8]: 85%
- inhibition at 50 ppm [8]: 90%
- insecticidal action compared with the compound from the state of the art (A.1.346) ([8]; Table B12, 50, 25 and 12.5 ppm): substantially better insecticidal action
- mortality at 200 ppm [10]: > 80%
- mortality at 200 ppm [6]: > 80%

Compound: Cc1cc(Cl)cc(C(=O)NC(C)(C#N)C2CC2)c1NC(=O)c1cc(Br)nn1-c1ncccc1Cl (stereo not drawn) [Compound T1.1.50]
- mortality at 200 ppm [1]: > 80%
- mortality at 200 ppm [2]: > 80%
- mortality at 12.5 ppm [3]: > 80%
- mortality at 12.5 ppm [11]: > 80%
- mortality at 12.5 ppm [4]: > 80%
- mortality at 200 ppm [5]: > 80%
- pest or weed control at 200 ppm [9]: > 80%
- mortality at 200 ppm [6]: > 80%

Compound: Cc1cc(Cl)cc(C(=O)NC(C)(C#N)C2CC2)c1NC(=O)c1cc(Cl)nn1-c1ncccc1Cl (stereo not drawn) [Compound T1.1.51]
- mortality at 200 ppm [1]: > 80%
- mortality at 200 ppm [2]: > 80%
- mortality at 12.5 ppm [3]: > 80%
- mortality at 12.5 ppm [4]: > 80%
- mortality at 200 ppm [5]: > 80%
- pest or weed control at 200 ppm [9]: > 80%
- mortality at 200 ppm [6]: > 80%

Compound: Cc1cc(Cl)cc(C(=O)NC(C)(C#N)C2CC2)c1NC(=O)c1cc(C(F)F)nn1-c1ncccc1Cl (stereo not drawn) [Compound T1.1.52]
- mortality at 200 ppm [1]: > 80%
- mortality at 200 ppm [2]: > 80%
- mortality at 12.5 ppm [3]: > 80%
- mortality at 12.5 ppm [11]: > 80%
- mortality at 12.5 ppm [4]: > 80%
- mortality at 200 ppm [5]: > 80%
- pest or weed control at 200 ppm [9]: > 80%
- mortality at 200 ppm [10]: > 80%
- mortality at 200 ppm [6]: > 80%

Compound: Cc1cc(Cl)cc(C(=O)NC(C)(C#N)C2CC2)c1NC(=O)c1cc(OCC(F)(F)F)nn1-c1ncccc1Cl (stereo not drawn) [Compound T1.1.53]
- mortality at 200 ppm [2]: > 80%
- mortality at 12.5 ppm [3]: > 80%
- mortality at 12.5 ppm [4]: > 80%
- mortality at 200 ppm [5]: > 80%
- pest or weed control at 200 ppm [9]: > 80%
- mortality at 200 ppm [6]: > 80%

Compound: COc1cc(C(=O)Nc2c(C)cc(Cl)cc2C(=O)NC(C)(C#N)C2CC2)n(-c2ncccc2Cl)n1 (stereo not drawn) [Compound T1.1.55]
- mortality at 200 ppm [2]: > 80%
- mortality at 12.5 ppm [11]: > 80%
- mortality at 12.5 ppm [4]: > 80%
- mortality at 200 ppm [5]: > 80%
- pest or weed control at 200 ppm [9]: > 80%
- mortality at 200 ppm [6]: > 80%

Compound: Cc1cc(I)cc(C(=O)NC(C)(C#N)C2CC2)c1NC(=O)c1cc(C(F)(F)F)nn1-c1ncccc1Cl (stereo not drawn) [Compound T1.1.105]
- mortality at 200 ppm [1]: > 80%
- mortality at 200 ppm [2]: > 80%
- mortality at 12.5 ppm [3]: > 80%
- mortality at 12.5 ppm [4]: > 80%
- mortality at 200 ppm [5]: > 80%
- pest or weed control at 200 ppm [9]: > 80%
- mortality at 200 ppm [10]: > 80%
- mortality at 200 ppm [6]: > 80%

Compound: Cc1cc(I)cc(C(=O)NC(C)(C#N)C2CC2)c1NC(=O)c1cc(Br)nn1-c1ncccc1Cl (stereo not drawn) [Compound T1.1.106]
- mortality at 200 ppm [2]: > 80%
- mortality at 12.5 ppm [4]: > 80%
- mortality at 200 ppm [5]: > 80%
- pest or weed control at 200 ppm [9]: > 80%
- mortality at 200 ppm [6]: > 80%

Compound: Cc1cc(I)cc(C(=O)NC(C)(C#N)C2CC2)c1NC(=O)c1cc(Cl)nn1-c1ncccc1Cl (stereo not drawn) [Compound T1.1.107]
- mortality at 200 ppm [1]: > 80%
- mortality at 200 ppm [2]: > 80%
- mortality at 12.5 ppm [3]: > 80%
- mortality at 12.5 ppm [4]: > 80%
- mortality at 200 ppm [5]: > 80%
- mortality at 200 ppm ([12]; Tetranychus urticae, foliar, 192 h): 80%
- activity in words ([12]; in vivo): good activity
- mortality at 200 ppm [6]: > 80%

Compound: Cc1cc(I)cc(C(=O)NC(C)(C#N)C2CC2)c1NC(=O)c1cc(C(F)F)nn1-c1ncccc1Cl (stereo not drawn) [Compound T1.1.108]
- mortality at 200 ppm [1]: > 80%
- mortality at 200 ppm [2]: > 80%
- mortality at 200 ppm [5]: > 80%
- pest or weed control at 200 ppm [9]: > 80%
- mortality at 200 ppm [6]: > 80%

Compound: COc1cc(C(=O)Nc2c(C)cc(I)cc2C(=O)NC(C)(C#N)C2CC2)n(-c2ncccc2Cl)n1 (stereo not drawn) [Compound T1.1.111]
- mortality at 200 ppm [2, 13]: > 80%
- mortality at 12.5 ppm [4, 14]: > 80%
- mortality at 200 ppm [5, 15]: > 80%
- mortality at 200 ppm [6, 16]: > 80%

Compound: Cc1cc(Cl)cc(C(=O)NC(C)(C#N)C2CCC2)c1NC(=O)c1cc(C(F)(F)F)nn1-c1ncccc1Cl (stereo not drawn) [Compound T2.1.49]
- mortality at 200 ppm [2]: > 80%
- mortality at 12.5 ppm [11]: > 80%
- mortality at 200 ppm [5]: > 80%
- pest or weed control at 200 ppm [9]: > 80%
- mortality at 200 ppm [6]: > 80%
